Results from patent US20060276464A1, “Diarylsulfone sulfonamides and use thereof” (Wyeth, priority 2005, published 2006).
Where two headings read alike, the source gives them in different places.

Columns and labels:
SFRP-1 [1] = target: T1, SFRP-1 (Homo sapiens, UniProt Q8N474); experiment: Cell-based assay for in vitro measurement of SFRP-1/SARP2 antagonist activity (U2OS cells co-transfected with 16x TCF-tk-Luciferase reporter, Wnt and hSFRP-1); settings: for fold induction at 15 µM / fold induction at 10 µM: U2OS; for fold induction at 10 µM: read-out: Fold Induction with SFRP-1, U2OS cells, single dose 10 μM, luciferase reporter, fold induction over SFRP-1 control;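 on all read-outs here: U2OS cells co-transfected with a TCF-tk luciferase reporter, a Wnt vector, hSFRP-1 or empty vector and CMV-βgal, luciferase luminescence read in cell lysates alongside βgal activity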
T1 sequence (Q8N474 32-314): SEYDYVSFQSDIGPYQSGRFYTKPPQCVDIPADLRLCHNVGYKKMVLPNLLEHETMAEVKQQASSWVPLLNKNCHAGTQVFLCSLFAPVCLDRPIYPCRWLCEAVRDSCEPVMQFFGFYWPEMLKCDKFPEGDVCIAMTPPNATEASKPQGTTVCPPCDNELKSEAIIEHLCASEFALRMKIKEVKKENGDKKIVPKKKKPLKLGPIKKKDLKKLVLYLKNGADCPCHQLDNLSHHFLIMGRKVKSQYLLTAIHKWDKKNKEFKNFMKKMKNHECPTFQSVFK

SFRP-1 [2] = target: T1, SFRP-1; experiment: Fluorescence polarization binding assay (competitive displacement of a probe compound from SFRP-1); settings: fluorescence anisotropy, 45 nM SFRP-1, 20 nM probe;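 further: test compound competes with a fluorescent probe held by SFRP-1, seen as a drop in probe anisotropy after incubation in darkness, with anisotropy as function of rising compound dose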
[3] = read-out: Fold Induction with SFRP-1, Conc 15 μM, single dose, luciferase reporter, fold induction over SFRP-1 control, cells with SFRP-1
[4] = read-out: Fold Induction without SFRP-1, Conc 15 μM, single dose, luciferase reporter, cells without SFRP-1 (specificity control)
[5] = read-out: Fold Induction with SFRP-1, Conc 15 μM, with SFRP-1, fold induction over SFRP-1 control, single dose
[6] = read-out: Fold Induction without SFRP-1, Conc 15 μM, without SFRP-1, single dose

| SMILES | fold induction at 15 µM (SFRP-1 [1]; [3]) | fold induction at 15 µM (SFRP-1 [1]; [4]) | IC50 (SFRP-1 [2]) [nM] | EC50 (SFRP-1 [1]) [nM] | fold induction at 10 µM (SFRP-1 [1]) | fold induction at 15 µM (SFRP-1 [1]; [5]) | fold induction at 15 µM (SFRP-1 [1]; [6]) |
| --- | --- | --- | --- | --- | --- | --- | --- |
| CC(C)(C)OC(=O)NCCCNS(=O)(=O)c1cc(S(=O)(=O)c2ccccc2)ccc1C(F)(F)F [Example 988, tert-butyl [3-({[5-(phenylsulfonyl)-2-(trifluoromethyl)phenyl]sulfonyl}amino)propyl]carbamate] | – | – | 1100 | 1890 | – | – | – |
| Cc1ccccc1S(=O)(=O)c1ccc(C(C)C)c(S(=O)(=O)NC2CCOCC2)c1 [Example 541, 2-isopropyl-5-[(2-methylphenyl)sulfonyl]-N-(tetrahydro-2H-pyran-4-yl)benzenesulfonamide] | 3.5 | 1.2 | 1500 | – | – | – | – |
| CN(CCNS(=O)(=O)c1cc(S(=O)(=O)c2ccccc2)ccc1C(F)(F)F)C(=O)NC(C)(C)C [Example 829, N-{2-[[(tert-butylamino)carbonyl](methyl)amino]ethyl}-5-(phenylsulfonyl)-2-(trifluoromethyl)benzenesulfonamide] | – | – | 400 | 1320 | 2.7 | – | – |
| O=S(=O)(NCCc1ccccn1)c1cc(S(=O)(=O)c2ccccc2)ccc1Br [Example 592, 2-bromo-5-(phenylsulfonyl)-N-(2-pyridin-2-ylethyl)benzenesulfonamide] | 3.1 | 1.1 | 1000 | – | – | – | – |
| CC(C)c1ccc(S(=O)(=O)c2ccc(F)cc2)cc1S(=O)(=O)NC[C@H](C)c1ccccc1 [Example 443, 5-[(4-fluorophenyl)sulfonyl]-2-isopropyl-N-[(2R)-2-phenylpropyl]benzenesulfonamide] | – | – | 600 | – | – | 2.5 | 1.1 |
| COc1cccc(S(=O)(=O)c2ccc(Cl)c(S(=O)(=O)NC3CCOCC3)c2)c1 [Example 606, 2-chloro-5-[(3-methoxyphenyl)sulfonyl]-N-(tetrahydro-2H-pyran-4-yl)benzenesulfonamide] | 1.9 | 1 | 8000 | – | – | – | – |
| CCOc1ccccc1S(=O)(=O)c1ccc(C)c(S(=O)(=O)NCCc2ccccn2)c1 [Example 420, 5-[(2-ethoxyphenyl)sulfonyl]-2-methyl-N-(2-pyridin-2-ylethyl)benzenesulfonamide] | – | – | 8000 | – | – | 2.4 | 1.3 |
| CCCc1ccc(S(=O)(=O)c2ccc(F)cc2)cc1S(=O)(=O)NCCc1ccccc1 [Example 559, 5-[(4-fluorophenyl)sulfonyl]-N-(2-phenylethyl)-2-propylbenzenesulfonamide] | 2.3 | 1 | 1200 | – | – | – | – |
| CC(C)c1ccc(S(=O)(=O)c2ccc(F)cc2)cc1S(=O)(=O)NCCCn1ccnc1 [Example 319, 5-[(4-fluorophenyl)sulfonyl]-N-[3-(1H-imidazol-1-yl)propyl]-2-isopropylbenzenesulfonamide] | – | – | 600 | – | – | 3.5 | 1.1 |
| CN(CCNS(=O)(=O)c1cc(S(=O)(=O)c2ccccc2)ccc1C(F)(F)F)C(=O)c1ccccc1OC(F)(F)F [Example 839, N-Methyl-N-[2-({[5-(phenylsulfonyl)-2-(trifluoromethyl)phenyl]sulfonyl}amino)ethyl]-2-(trifluoromethoxy)benzamide] | – | – | 300 | 2380 | 3.5 | – | – |

Second part, the molecule after the results:

| fold induction at 15 µM (SFRP-1 [1]; [3]) | fold induction at 15 µM (SFRP-1 [1]; [4]) | IC50 (SFRP-1 [2]) [nM] | EC50 (SFRP-1 [1]) [nM] | fold induction at 10 µM (SFRP-1 [1]) | fold induction at 15 µM (SFRP-1 [1]; [5]) | fold induction at 15 µM (SFRP-1 [1]; [6]) | SMILES |
| --- | --- | --- | --- | --- | --- | --- | --- |
| 3 | 0.9 | 800 | – | – | – | – | COCC(=O)N1CCC(NS(=O)(=O)c2cc(S(=O)(=O)c3ccc(F)cc3)ccc2C(C)C)CC1 [Example 519, 5-[(4-fluorophenyl)sulfonyl]-2-isopropyl-N-[1-(methoxyacetyl)piperidin-4-yl]benzenesulfonamide] |
| – | – | 140 | 490 | – | – | – | O=C(c1ccnc(N2CCCC2)c1)N1CCC(NS(=O)(=O)c2cc(S(=O)(=O)c3ccccc3)ccc2C(F)(F)F)CC1 [Example 1029, 5-(phenylsulfonyl)-N-[1-(2-pyrrolidin-1-ylisonicotinoyl)piperidin-4-yl]-2-(trifluoromethyl)benzenesulfonamide] |
| – | – | 1000 | 1930 | 3.1 | – | – | CN(CCNS(=O)(=O)c1cc(S(=O)(=O)c2ccccc2)ccc1C(F)(F)F)C(=O)N1CCNCC1 [Example 898, N-methyl-N-[2-({[5-(phenylsulfonyl)-2-(trifluoromethyl)phenyl]sulfonyl}amino)ethyl]piperazine-1-carboxamide] |
| – | – | 400 | 244 | – | – | – | C[C@@H](C(N)=O)N1CCC(NS(=O)(=O)c2cc(S(=O)(=O)c3ccccc3)ccc2C(F)(F)F)CC1 [Example 1039, (2S)-2-[4-({[5-(phenylsulfonyl)-2-(trifluoromethyl)phenyl]sulfonyl}amino)piperidin-1-yl]propanamide] |
| – | – | 700 | 1340 | 3.2 | – | – | O=C(O)CN1CCC(CNS(=O)(=O)c2cc(S(=O)(=O)c3ccccc3)ccc2C(F)(F)F)CC1 [Example 941, {4-[({[5-(phenylsulfonyl)-2-(trifluoromethyl)phenyl]sulfonyl}amino)methyl]piperidin-1-yl}acetic acid] |
| – | – | 1000 | 29300 | 1.7 | – | – | C[C@@H](NS(=O)(=O)c1cc(S(=O)(=O)c2ccccc2)ccc1C(F)(F)F)[C@H](O)c1ccccc1 (relative stereo) [Example 684, N-[(1R*,2R*)-2-hydroxy-1-methyl-2-phenylethyl]-5-(phenylsulfonyl)-2-(trifluoromethyl)benzenesulfonamide] |
| – | – | 700 | – | 3.8 | – | – | CC(C)(C)c1ccc(C(=O)N2CCC(NS(=O)(=O)c3cc(S(=O)(=O)c4cccc(Cl)c4)ccc3C(F)(F)F)CC2)cc1 [Example 753, N-[1-(4-tert-butylbenzoyl)piperidin-4-yl]-5-[(3-chlorophenyl)sulfonyl]-2-(trifluoromethyl)benzenesulfonamide] |
| – | – | 300 | 896 | 3.7 | – | – | CC(C)(C)OC(=O)N1CCC[C@@H](NS(=O)(=O)c2cc(S(=O)(=O)c3ccccc3)ccc2C(F)(F)F)C1 [Example 787, tert-butyl(3R)-3-({[5-(phenylsulfonyl)-2-(trifluoromethyl)phenyl]sulfonyl}amino)piperidine-1-carboxylate] |
| 2.5 | 1 | 1700 | – | – | – | – | Cc1ccc(S(=O)(=O)c2ccccc2)cc1S(=O)(=O)NC1CCN(C(=O)c2ccno2)CC1 [Example 485, N-[1-(isoxazol-5-ylcarbonyl)piperidin-4-yl]-2-methyl-5-(phenylsulfonyl)benzenesulfonamide] |
| – | – | 400 | 569 | 3.4 | – | – | O=S(=O)(NCCc1ccc(O)cc1)c1cc(S(=O)(=O)c2ccccc2)ccc1C(F)(F)F [Example 943, N-[2-(4-hydroxyphenyl)ethyl]-5-(phenylsulfonyl)-2-(trifluoromethyl)benzenesulfonamide] |
| – | – | 4000 | – | – | 1.9 | 1.1 | Cc1ccc(S(=O)(=O)c2ccccc2)cc1S(=O)(=O)NC1CCN(C(=O)c2cccc(C(F)(F)F)c2)CC1 [Example 465, 2-methyl-5-(phenylsulfonyl)-N-{1-[3-(trifluoromethyl)benzoyl]piperidin-4-yl}benzenesulfonamide] |
